According to US20230210813A1, “METHODS AND PHARMACEUTICAL COMPOSITIONS FOR THE TREATMENT OF CHRONIC KIDNEY DISEASE” (INSERM (INSTITUTE NATIONAL DE LA SANTÉ ET DE LA RECHERCHE …, priority 2020, published 2023):

Legend:
Ins2Akita mice (DKD) [1] = experiment: DMAPT versus ramipril treatment of diabetic Ins2Akita mice (second series, FIG. 1); format: in vivo, mouse; conditions: for urinary albumin/creatinine ratio (ACR): 10 mg/kg/d for 2 months from 2 months of age, vs untreated DKD, FIG. 1A; for glomerular injury (PAS staining) / glomerular area / fibrosis (Masson trichrome staining) / glycemia / body weight: 10 mg/kg/d for 2 months; for glomerular injury (PAS staining): FIG. 1B; for glomerular area: FIG. 1C; for fibrosis (Masson trichrome staining): FIG. 1D; for glycemia: FIG. 1E; for body weight: FIG. 1F
Protocol: (§1) Male C57BL/6-Ins2Akita/J (Ins2Akita) and C57BL/6J (WT) mice (Charles River) were housed with unrestricted access to water and were maintained on a 12-h light-dark cycle in a pathogen-free environment on standard mouse chow. All experiments were conducted in accordance with the Guide for the care and use of laboratory animals of the National Institute of Health, eighth edition and the French Institute of Health guidelines for the care and use of laboratory animals. The project was approved by the local (Inserm/UPS US006 CREFRE) and national ethics committees (ethics committee for animal experiment, CEEA122; Toulouse, France; approval 02867.01).
(§2) In a first series of experiments, 2 months old mice were treated with or without ACEi ramipril (10 mg/kg/d in drinking water) for 2 months. In a second series of experiments 2 months old mice were treated with or without ACEi ramipril as in the first series or with dimethylaminoparthenolide monofumarate (DMAPT, 10 mg/kg/d by gavage) for 2 months. In each series of experiments, urine was collected in metabolic cages for 12 h, few days before sacrifice.
Right kidney cortexes were fixed in Carnoy's solution for 24 h, dehydrated in successive baths with increasing alcohol concentrations, embedded in paraffin and 2 μm sections were cut and mounted, and stained with either periodic acid-Schiff (PAS) or Masson trichrome. Stained sections were scanned using a Nanozoomer 2.0 RS (Hamamatsu Photonics SARL) and treated with the Morpho-expert image-analysis software (version 1.00, Explora Nova) for renal corpuscle surface quantification. At least 50 glomeruli including superficial and […] cortical area, were examined for each animal. The extent of glomerular injury was expressed as the percentage of glomerular area fraction occupied by PAS positive matrix^3.
(§3) Urinary albumin concentration was measured by ELISA using the AlbuWell kit (WAK-Chemie Medical GmbH, Steinbach, Germany). Urinary creatinine concentration was measured by the colorimetric method of Jaffe according to the protocol Creatinine Assay Kit (Bio Assay Systems). Blood glucose levels were measured in caudal blood from fasted awake mice using a glucometer (Glucometer Elite XL; Bayer Healthcare, Elkhart, Ind.).
(§4) Comparison between 2 groups of values was implemented using a two-tailed unpaired Welch's t-tests. Comparison between more than 2 groups, was implemented using an ordinary one-way ANOVA followed by Homl-Sidak's multiple comparisons test was used. P<0.05 was considered statistically significant. For the proteomic data the P values were adjusted for the false discovery rate (Benjamini-Hochberg).

[2] = cited from earlier work
[3] = fumarate salt; cited from earlier work
[4] = system: histone deacetylase (HDAC); conditions: independent of NF kappa B; cited from earlier work
Ins2Akita mice (DKD) [5] = experiment: Ramipril treatment of diabetic Ins2Akita mice (first series); format: in vivo, mouse
Protocol: as §1, §2, §3, §4

patients with cancer = conditions: Phase I, standardized doses; cited from earlier work
[6] = system: immune glomerulonephritis in rat; conditions: cited from earlier work
[7] = system: type 2 diabetic db/db mice; conditions: cited from earlier work
[8] = system: NF kappa B transcription factor complex; conditions: cited from earlier work
[9] = ramipril 10 mg/kg/d in drinking water for 2 months

SMILES	urinary albumin/creatinine ratio (ACR) (Ins2Akita mice (DKD) [1])	glomerular injury (PAS staining) (Ins2Akita mice (DKD) [1])	glomerular area (Ins2Akita mice (DKD) [1])	fibrosis (Masson trichrome staining) (Ins2Akita mice (DKD) [1])	glycemia (Ins2Akita mice (DKD) [1])	body weight (Ins2Akita mice (DKD) [1])	water-solubility [2]	oral bioavailability [3]	HDAC activity [4]	body weight (Ins2Akita mice (DKD) [5]; [9])	glycemia (Ins2Akita mice (DKD) [5]; [9])	ACR (Ins2Akita mice (DKD) [5]; ramipril 10 mg/kg/d in drinking water from 2 months of age for 2 months)	tolerability / dose-limiting toxicity (patients with cancer)	proteinuria and renal injury [6]	renal inflammation and insulin resistance [7]	activity of the NF kappa B transcription factor complex [8]
C/C1=C/CC[C@@]2(C)O[C@@H]2[C@H]2OC(=O)[C@H](CN(C)C)[C@@H]2CC1 [DMAPT, (4E,8S)-8-[(dimethylamino)methyl]-2,3,6,7,7aS,8,10aS,10bR-octahydro-1aR,5-dimethyl-oxireno[9,10]cyclodeca[1,2-b]furan-9(1aH)-one]	significant reduction	significantly reduced	tended to reduce glomerular area without reaching significance	significantly reduced	Neither glycemia (FIG. 1E) nor body weight (FIG. 1F) were significantly influenced	Neither glycemia (FIG. 1E) nor body weight (FIG. 1F) were significantly influenced	water-soluble	orally bioavailable	inhibit histone deacetylase (HDAC) activity							
CCOC(=O)[C@H](CCc1ccccc1)N[C@@H](C)C(=O)N1[C@H](C(=O)O)C[C@@H]2CCC[C@@H]21 [ramipril]	significant reduction	no significant influence	no significant influence	no significant influence	Neither glycemia (FIG. 1E) nor body weight (FIG. 1F) were significantly influenced	Neither glycemia (FIG. 1E) nor body weight (FIG. 1F) were significantly influenced				no influence	slightly but significantly reduced	significantly reduced				
C=C1C(=O)O[C@@H]2[C@H]3O[C@]3(C)CC/C=C(\C)CC[C@@H]12 [parthenolide, (1aR,4E,7aS,10aS,10bR)-2,3,6,7,7a,8,10a,10b-octahydro-1a,5-dimethyl-8-methylene-oxireno[9,10]cyclodeca[1,2-b]furan-9(1aH)-one]							poor water-solubility						well tolerated without dose-limiting toxicity	beneficial impact	able to alleviate renal inflammation and insulin resistance	inhibiting the activity
